Measurements as given in PubChem BioAssay (NCI).
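Results reflect a 48-hour exposure of cells in 96-well plates to compound at five concentrations. The concentration for full growth arrest is given as TGI.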

Tests used:
Assay in all cases: NCI-60 cell line screen, 48 h
A498 renal = tested on: A498 renal
A549 NSCLC = tested on: A549 NSCLC
BT-549 breast = tested on: BT-549 breast
HCC-2998 colon = tested on: HCC-2998 colon
HOP-62 NSCLC = tested on: HOP-62 NSCLC
HOP-92 NSCLC = tested on: HOP-92 NSCLC
HS 578T breast = tested on: HS 578T breast
K-562 leukemia = tested on: K-562 leukemia
M14 melanoma = tested on: M14 melanoma
MALME-3M melanoma = tested on: MALME-3M melanoma
MDA-MB-231 breast = tested on: MDA-MB-231 breast
NCI-H23 lung = tested on: NCI-H23 lung
OVCAR-5 ovarian = tested on: OVCAR-5 ovarian
PC-3 prostate = tested on: PC-3 prostate
RPMI-8226 leukemia = tested on: RPMI-8226 leukemia
SN12C renal = tested on: SN12C renal
SNB-19 CNS = tested on: SNB-19 CNS
SW-620 colon = tested on: SW-620 colon
TK-10 renal = tested on: TK-10 renal

| Compound | TGI (A498 renal) [µM] | TGI (A549 NSCLC) [µM] | TGI (BT-549 breast) [µM] | TGI (HCC-2998 colon) [µM] | TGI (HOP-62 NSCLC) [µM] | TGI (HOP-92 NSCLC) [µM] | TGI (HS 578T breast) [µM] | TGI (K-562 leukemia) [µM] | TGI (M14 melanoma) [µM] | TGI (MALME-3M melanoma) [µM] | TGI (MDA-MB-231 breast) [µM] | TGI (NCI-H23 lung) [µM] | TGI (OVCAR-5 ovarian) [µM] | TGI (PC-3 prostate) [µM] | TGI (RPMI-8226 leukemia) [µM] | TGI (SN12C renal) [µM] | TGI (SNB-19 CNS) [µM] | TGI (SW-620 colon) [µM] | TGI (TK-10 renal) [µM] |
| --- | --- | --- | --- | --- | --- | --- | --- | --- | --- | --- | --- | --- | --- | --- | --- | --- | --- | --- | --- |
| CC(C)n1c2c([n+](C)c1/C=C/c1ccccc1)C(=O)c1ccccc1C2=O | 2.76 | 4.68 | 0.667 | 2.06 | 1.61 | 1.48 | 7.8 | 9.61 | 1.08 | 0.248 | 0.884 | 0.412 | 1.28 | 0.726 | 8.96 | 0.169 | 0.784 | 1.21 | 2.39 |
| CN(C)c1ccc(/C=C(\NC(=O)c2ccccc2)C(=O)NC(CCC(=O)O)C(=O)O)cc1 (configuration not stated) | > 100 | > 100 | > 100 | > 100 | > 100 | > 100 | > 100 | > 100 | > 100 | > 100 | > 100 | > 100 | > 100 | > 100 | > 100 | > 100 | > 100 | > 100 | > 100 |
| Oc1c(C2=N[C@H]3CCCC[C@@H]3N2)ccc2ccccc12 | > 100 | > 21.8 | > 100 | > 100 | > 80.6 | > 100 | > 100 | > 100 | > 100 | > 100 | > 100 | > 100 | > 100 | > 100 | > 100 | > 100 | > 96.4 | > 100 | > 100 |
| O=C(NC1=NC2C=CC([N+](=O)[O-])=CC2S1)C(=O)Nn1c(=S)[nH]c2ccccc2c1=O (configuration not stated) | > 100 | > 100 | > 100 | > 100 | > 100 | > 100 | > 100 | > 100 | > 100 | > 100 | > 100 | > 100 | > 100 | > 100 | > 100 | > 100 | 72.7 | > 100 | > 100 |
| COC(=O)C1(Cc2ccccc2)Cc2ccc3c(c2C1=O)CCC3 (configuration not stated) | > 89.8 | > 100 | > 87.7 | > 100 | > 100 | > 73 | > 84.3 | > 100 | 97.7 | 25.4 | > 100 | > 78.6 | > 100 | > 100 | > 90.3 | > 100 | > 100 | > 100 | > 84 |
| Oc1ccc(Cn2c(-c3ccc(O)c(O)c3)nc3ccccc32)cc1O | > 100 | 66.2 | 51 | 27.3 | 38 | 41.9 | 35.2 | 55.9 | 42.2 | 41.4 | 43.3 | 75.4 | > 100 | > 100 | 46.1 | 40.6 | 83.4 | 42.1 | 38 |
| CN(C)c1ccc(/C=C(\NC(=O)c2ccccc2)C2NC(Cc3c[nH]c4ccccc34)C(=O)O2)cc1 (configuration not stated) | > 100 | > 100 | > 45.2 | > 100 | > 100 | > 69.3 | > 54.9 | > 100 | > 100 | 79.6 | > 100 | > 100 | > 100 | > 100 | > 49 | > 100 | > 100 | > 100 | > 38.7 |
| CC(C)NC(=O)OCc1c(COC(=O)NC(C)C)n(C)c2c1ccc1ccccc12 | 3.01 | 23.5 | 1.58 | 9.86 | 16.2 | 2.6 | 7.12 | > 20 | 3.2 | 2.24 | 3.6 | 3.17 | 7.43 | 17.1 | 3.92 | 5.3 | 3.74 | 2.4 | 3.04 |
| NCCCN1CCN(CC(=O)O)CCN(CCCN)CCN(CC(=O)O)CC1 | > 100 | > 100 | > 100 | > 100 | > 100 | > 100 | > 100 | > 100 | > 100 | > 100 | > 100 | > 100 | > 93.8 | > 100 | > 100 | > 100 | > 100 | > 100 | > 100 |
| O=C(Cc1ccc(Cl)c(Cl)c1)N(CCc1ccc(Cl)c(Cl)c1)CCN1CCCC1 | 3.45 | 4.25 | 7.04 | 3.33 | 3.38 | 4.74 | 11.2 | 3.66 | 3.56 | 3.16 | 3.26 | 3.95 | 3.48 | 3.77 | 3.62 |  | 4.9 |  | 3.22 |
| COc1ccccc1Cn1nc(OC)c2cc([N+](=O)[O-])ccc21 | 60.3 | > 100 | 46.2 | > 100 | 20.3 | 33.8 | > 84.7 | > 100 | > 100 | > 100 | > 67.7 | > 89.2 | > 100 | > 100 |  | > 100 | 41.5 | > 100 | 60.8 |
| OC1CN2CCS[C@H]2C(O)C1O (some centres not stated) | > 100 | > 100 | > 100 | > 100 | > 100 | > 100 | > 100 | > 100 | > 100 | > 100 | > 100 | > 100 | > 100 | > 100 | > 100 |  | > 100 | > 100 | > 100 |
| c1cncc(-c2ncc3cccnc3n2)c1 | > 100 | > 100 | > 100 | > 100 | > 100 | > 100 | > 100 | > 100 |  | > 100 | > 100 | > 100 | > 100 | > 100 | > 100 | > 100 | > 100 | > 100 | > 100 |
